Data taken from patent US8277777B2, “Compound having affinity for amyloid” (Nihon Medi-Physics Co., Ltd., priority 2006, dated 2012).
Where two headings read alike, the source gives them in different places.

What was measured:
[1] = target: T1, amyloid (aggregated Aβ1-40) (Homo sapiens, UniProt P05067); experiment: in vitro amyloid binding test (inhibition of [125I]3′-I-BTA-0 binding); settings: [125I]3′-I-BTA-0 400 pmol/L, amyloid 1 μmol/L, 0.1% BSA phosphate buffer pH 7.4, 22°C, 3 hours
T1 construct: purchased Peptide Institute, INC
Procedure: The resulting samples were placed in each well (about 0.3 mL in volume) of a 96-well microplate.
The measured radioactivity level was defined as the background radioactivity level, and used in the calculation of the inhibition ratio (hereinafter referred to as BG).
(9) Using the radioactivity levels measured above in (7) and (8), the inhibition ratio was determined by the following formula (1).
A graph in which values converted by probit transformation from the obtained inhibition ratios were plotted relative to logarithms of concentrations of compounds for evaluation was prepared to obtain an approximate straight line by the least square method. Using the line, the concentration of each compound for evaluation was determined, at which the radioactivity level is half of the level of the sample free from each compound for evaluation, and was defined as a 50% inhibition concentration of each compound (hereinafter referred to as IC50% value).

[2] = partition coefficient based on HPLC; format: physicochemical; settings: mobile phase 50 mM triethylamine phosphate (pH 7.2)/acetonitrile=40/60, formula (4)
Procedure: The partition coefficient by HPLC (hereinafter referred to as log PHPLC) was measured by the following method.
First, compounds for evaluation shown in Table 5 were dissolved at a concentration of 1 mg/mL in methanol containing 10% dimethylsulfoxide to prepare sample solutions. One μL of the sample solution was subjected to HPLC analysis under the following conditions to determine the elution time (tO) of the solvent and the elution time (tR) of each compound.
Column: Prodigy ODS (3) (product name; manufactured by phenomenex; size: 4.6×250 mm)
Mobile phase: a mixed solution of 50 mM triethylamine phosphate (pH 7.2)/acetonitrile=40/60
Detector: ultraviolet visible absorptiometer (detection wavelength: 282 nm)
Using the obtained tO and tR, the retention factor (hereinafter referred to as K′HPLC value) of each compound for evaluation was determined according to the calculation formula (3). K′HPLC=(tR−t0)/t0 (3) […]
Using K′HPLC obtained for each compound for evaluation, the log PHPLC value of each compound for evaluation was determined according to the above calculation formula (4).

[3] = system: Salmonella typhimurium TA98; experiment: reverse mutation test (Ames test), TA98; format: cell-based
Procedure: (§1) In order to examine mutagenicity of Compound 1, Compound 2 and Compound 3, reverse mutation test using Salmonella typhimurium TA98 and TA100 (hereinafter referred to as Ames test) was conducted.
(§2) The test was conducted without addition of S9mix and with addition of S9mix. Dimethylsulfoxide was used as a negative control. A positive control was 2-(2-furyl)-3-(5-nitro-2-furyl)acrylamide in case S9mix was not added, and 2-aminoanthracene in case S9 mix was added.
(§3) The amount of each sample to be added to the test plate was 7 dosages (geometric ratio 4) with the maximum dose being 1250 μg/plate for Compound 1, and 7 dosages (geometric ratio 3) with the maximum dose being […] for Compound 2 and Compound 3. After a sample to be examined and a strain (TA98 or TA100), or a sample to be examined, S9mix and the strain were mixed together, the mixture was multilayered using soft agar on a medium of a test plate, and then incubated at 37° C. for 48 hours.

[4] = system: Salmonella typhimurium TA100; experiment: reverse mutation test (Ames test), TA100; format: cell-based
Procedure: as §1, §2, §3

[5] = system: Salmonella typhimurium TA98 and TA100; experiment: Ames test, overall judgment; format: cell-based; settings: regardless of addition of S9mix
Procedure: as §1, §2, §3

[6] = [125I]-labeled, normal mice, cited from earlier work; for transfer into brain: 2 minutes after administration
[7] = [11C]-labeled, rats; cited from earlier work
[8] = partition coefficient based on the octanol extraction method; format: physicochemical; settings: octanol / 10 mmol/L phosphate buffer (pH 7.4), radioactivity
Procedure: Partition coefficients based on the octanol extraction method (hereinafter referred to as log Poctanol) were measured, which are generally used as an indicator of permeability of compounds through the blood-brain barrier (hereinafter referred to as BBB).
To 2 mL of octanol, 10 μL of a solution containing Compound 4 (Example 5) and 2 mL of a 10 mmol/L phosphate buffer (pH 7.4) were added and stirred for 30 seconds. After the mixture was centrifuged (2000 rpm×60 min.) with a low-speed centrifuge (model: […] CT4D manufactured by Hitachi Koki Co., Ltd.), the octanol layer and the water layer were sampled each in an amount of 1 mL, and subjected to measurement of radioactivity with an autowell gamma system (manufactured by Aloka, Type: ARC-301B). Using the obtained radioactivity, log Poctanol was calculated in accordance with the equation (2).

[9] = transferability into brain and clearance; settings: rats, intravenous injection
Procedure: Using Compound 4, a time course change of radioactive accumulation in brain of male Wistar rats (7-week old) was measured.
The rats were sacrificed by bleeding from abdominal artery, and brains were removed and subjected to measurement of radioactivity (hereinafter referred to as A in this Example) with an autowell gamma system (Type: ARC-301B manufactured by Aloka Co., Ltd.) and further subjected to measurement of mass of brains 2, 5, 30 and 60 minutes after the injection. Also, radioactivity (hereinafter referred to as B in this Example) of 0.05 mL of a 1000-fold diluted solution of the injected solution was measured in the same manner as above. Using these measurement results, radioactive distributions per unit weight of brain (% ID/g) at the respective time points were calculated in accordance with the following formula (5). Three animals were used for experiment at the respective time points.

[10] = target: T2, intracerebral amyloid (aggregated Aβ1-42 injected into amygdaloid nucleus) (Homo sapiens, UniProt P05067); experiment: confirmation of imaging of amyloid in brain (autoradiogram of brain slice); format: in vivo, male Wistar rat; settings: rat, tail vein, brain removed 30 minutes after the injection
T2 construct: dissolving Aβ1-42 (Wako Pure Chemical Industries, Ltd.) in a phosphate buffer (pH 7.4); purchased Wako Pure Chemical Industries, Ltd
Procedure: The following experiment was carried out in order to examine whether amyloid in brain can be imaged by the compound of the present invention.
(1) A 1 mg/mL suspension of aggregated Aβ (hereinafter referred to as amyloid suspension in this Example) was obtained by dissolving Aβ1-42 (Wako Pure Chemical Industries, Ltd.) in a phosphate buffer (pH 7.4), followed by shaking at 37° C. for 72 hours.
(2) 2.5 μL (corresponding to […]) of the amyloid suspension was injected into an amygdaloid nucleus on one side of a male Wistar rat (7-week old). As a control, 2.5 μL of a phosphate buffered physiological saline solution (pH 7.4) was injected into an amygdaloid nucleus on the other side of the rat. The rats were examined 3 days after the injection of the amyloid suspension and the phosphate buffered physiological saline solution.
(3) Compound 4 was dissolved in a 10 mg/mL ascorbic acid-containing physiological saline solution to obtain a sample solution (84 MBq/mL in radioactivity concentration). This solution was injected into the rat through the tail vein (dosage: 0.5 mL, dosed radioactivity: 42 MBq equivalent).
(4) Brain was removed 30 minutes after the injection to prepare a brain slice of 10 μm in thickness with a microtome (type: CM3050S, manufactured by LEICA). […]

amyloid = settings: [125I]-labeled; cited from earlier work
[11] = TA98, without addition of S9mix
[12] = TA100, without addition of S9mix

T1 sequence (P05067 672-711 limits assumed): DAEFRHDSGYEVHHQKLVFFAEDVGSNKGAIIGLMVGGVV
T2 sequence (P05067 672-713): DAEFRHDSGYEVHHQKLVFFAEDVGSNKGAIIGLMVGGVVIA

## FCCCOc1ccc(-c2cn3ccccc3n2)cc1 [Compound 3, 2-[4′-(3″-fluoropropoxy)phenyl]imidazo[1,2-a]pyridine]
[1]
  IC50: 36.6 nM
[2]; read-out: logPHPLC value
  chromatographic logP: 1.7
[3]; TA98, with addition of S9mix
  Mutagenicity: Negative
[3]; [11]
  Mutagenicity: Negative
[4]; TA100, with addition of S9mix
  Mutagenicity: Negative
[4]; [12]
  Mutagenicity: Negative
[5]
  Ames test judgment: negative

## Oc1ccc2nc(-c3ccc(OCCCF)cc3)cn2c1 [Compound 2, 2-[4′-(3″-fluoropropoxy)phenyl]-6-hydroxyimidazo[1,2-a]pyridine]
[1]
  IC50: 30.5 nM
[3]; TA98, with addition of S9mix
  Mutagenicity: Negative
[3]; [11]
  Mutagenicity: Negative
[4]; TA100, with addition of S9mix
  Mutagenicity: Negative
[4]; [12]
  Mutagenicity: Negative
[5]
  Ames test judgment: negative

## CN(C)c1ccc(/C=C/c2ccc(I)cc2)cc1 [m-I-SB, (E)-4-dimethylamino-4′-iodostilbene]
[6]
  transfer into brain: transferred into brain
  clearance from normal tissues: insufficient in clearance from normal tissues

## CNc1ccc(/C=C/c2ccc(O)cc2)cc1 [SB-13, (E)-4-methylamino-4′-hydroxystilbene]
[7]
  clearance from normal tissues: it cannot be said that the clearance is sufficiently fast

## 2-[4′-(3″-[^18F]fluoropropoxy)phenyl]-6-methoxyimidazo[1,2-a]pyridine [Compound 4]
[8]
  logPoctanol value: 1.8
[9]; after 2 min.
  Radioactive concentration per unit weight in brain: 1.36 % ID/g
[9]; after 5 min.
  Radioactive concentration per unit weight in brain: 0.93 % ID/g
[9]; after 30 min.
  Radioactive concentration per unit weight in brain: 0.23 % ID/g
[9]; after 60 min.
  Radioactive concentration per unit weight in brain: 0.13 % ID/g
[10]
  accumulation of radioactivity on intracerebral amyloid: possesses a property of accumulating on intracerebral amyloid

## CN(C)c1ccc(-c2nc3ccc(I)cc3s2)cc1 [TZDM, 6-iodo-2-[4′-(N,N-dimethylamino)phenyl]benzothiazole]
[6]
  transfer into brain: transferred into brain
  clearance from normal tissues: insufficient in clearance from normal tissues

## Nc1c(/N=N/c2ccc(-c3ccc(/N=N/c4cc(S(=O)(=O)O)c5ccccc5c4N)cc3)cc2)cc(S(=O)(=O)O)c2ccccc12 [Congo Red, reference compound]
[1]
  IC50: > 1000 nM

## COc1ccc2nc(-c3ccc(OCCCF)cc3)cn2c1 [Compound 1, 2-[4′-(3″-fluoropropoxy)phenyl]-6-methoxyimidazo[1,2-a]pyridine]
[1]
  IC50: 1.1 nM
[3]; TA98, with addition of S9mix
  Mutagenicity: Negative
[3]; [11]
  Mutagenicity: Negative
[4]; TA100, with addition of S9mix
  Mutagenicity: Negative
[4]; [12]
  Mutagenicity: Negative
[5]
  Ames test judgment: negative

## CN(C)c1ccc(-c2cn3cc(I)ccc3n2)cc1 [IMPY, 6-iodo-2-[4′-(N,N-dimethylamino)phenyl]imidazo[1,2-a]pyridine]
[2]
  logPHPLC value: 2.1
amyloid
  clearance from normal tissues: rapid clearance from normal tissues
  transfer to brain and accumulation at amyloid after administration: transferring to brain and accumulating at amyloid

## CN(C)c1ccc(-c2cn3cc([123I])ccc3n2)cc1 [[^123I]-IMPY, reference compound]
[8]
  logPoctanol value: 2.1
[9]; after 2 min.
  Radioactive concentration per unit weight in brain: 1.02 % ID/g
[9]; after 5 min.
  Radioactive concentration per unit weight in brain: 0.99 % ID/g
[9]; after 30 min.
  Radioactive concentration per unit weight in brain: 0.20 % ID/g
[9]; after 60 min.
  Radioactive concentration per unit weight in brain: 0.08 % ID/g

## CN(C)c1ccc(-c2nc3ccc(I)cc3o2)cc1 [IBOX, 6-iodo-2-[4′-(N,N-dimethylamino)phenyl]benzoxazole]
[6]
  transfer into brain: transferred into brain
  clearance from normal tissues: insufficient in clearance from normal tissues
